# Read-outs that look alike come from different tables or passages of the source.
# Columns and labels:
# Assay type in all cases: in vivo
# Botrytis cinerea = Botrytis cinerea test in tomato (preventive, glasshouse); details: single compound
# Alternaria solani = Alternaria solani test in tomato (preventive, glasshouse); details: for pest or weed control at 0.05 ppm / pest or weed control at 0.1 ppm: Alternaria solani
# Erysiphe cichoracearum = Erysiphe cichoracearum test in cucumber (preventive, glasshouse); details: single compound
# Pyricularia oryzae = experiment: whole plant or invertebrate; details: for Observed Efficacy: single compound, preventive spray, rice; for pest or weed control at 0.05 ppm / pest or weed control at 0.1 ppm: Pyricularia oryzae, read-out: Observed Efficacy
# Phakopsora pachyrhizi = Phakopsora pachyrhizi test in soybean (preventive, glasshouse); details: single compound
# [1] = Table F4, Conc. 0.05 ppm, Botrytis cinerea in tomato, preventive
# [2] = Table F4, Conc. 0.1 ppm, Botrytis cinerea in tomato, preventive
# [3] = Table B3, single compound, Conc. 0.05 ppm, preventive
# [4] = Table B3, single compound, Conc. 0.1 ppm, preventive
# [5] = Conc. 0.05 ppm, preventive spray on tomato, % control vs untreated
# [6] = Conc. 0.1 ppm, preventive spray on tomato, % control vs untreated
# [7] = 0.05 ppm, preventive spray on cucumber
# [8] = 0.1 ppm, preventive spray on cucumber
# [9] = Table B4, single compound, Conc. 0.05 ppm, preventive
# [10] = Table B4, single compound, Conc. 0.1 ppm, preventive
# [11] = single compound, 0.05 ppm, preventive
# [12] = single compound, 0.05 ppm, preventive spray
# [13] = single compound, 0.1 ppm, preventive
# [14] = single compound, 0.1 ppm, preventive spray
# [15] = single compound, Conc. 0.1 ppm, preventive spray
# [16] = 0.05 ppm, preventive spray on soybean
# [17] = 0.1 ppm, preventive spray on soybean
# [18] = single compound, 0.05 ppm, preventive spray, read-out: Observed Efficacy (%)
# [19] = single compound, 0.1 ppm, preventive spray, read-out: Observed Efficacy (%)
# [20] = single compound, Conc. 0.05 ppm, preventive spray, read-out: Observed Efficacy
# [21] = single compound, Conc. 0.1 ppm, preventive spray, read-out: Observed Efficacy
Compound,Observed Efficacy (%) (Botrytis cinerea; [1]),Observed Efficacy (%) (Botrytis cinerea; [2]),Observed Efficacy (%) (Alternaria solani; [3]),Observed Efficacy (%) (Alternaria solani; [4]),Observed Efficacy (%) (Botrytis cinerea; [5]),Observed Efficacy (%) (Botrytis cinerea; [6]),Observed Efficacy (%) (Erysiphe cichoracearum; [7]),"Observed Efficacy (%) (Erysiphe cichoracearum; 0.1 ppm, cucumber, preventive)",Observed Efficacy (%) (Erysiphe cichoracearum; [8]),Observed Efficacy (%) (Alternaria solani; [9]),Observed Efficacy (%) (Alternaria solani; [10]),Observed Efficacy (%) (Alternaria solani; [11]),Observed Efficacy (%) (Alternaria solani; [12]),Observed Efficacy (%) (Alternaria solani; [13]),Observed Efficacy (%) (Alternaria solani; [14]),Observed Efficacy (Alternaria solani; [15]) [%],Observed Efficacy (%) (Phakopsora pachyrhizi; [16]),Observed Efficacy (%) (Phakopsora pachyrhizi; [17]),pest or weed control at 0.05 ppm (Pyricularia oryzae) [%],pest or weed control at 0.1 ppm (Pyricularia oryzae) [%],also measured
N#Cc1sc2c(=O)c3ccccc3c(=O)c=2sc1C#N [Dithionon],38,45,21,26,–,–,–,–,–,–,–,–,–,–,–,–,–,–,–,–,"Observed Efficacy (%) (Botrytis cinerea; Table F5, Conc. 0.05 ppm, Botrytis cinerea in tomato, preventive): 38%; Observed Efficacy (%) (Botrytis cinerea; Table F5, Conc. 0.1 ppm, Botrytis cinerea in tomato, preventive): 45%"
"CC(O)(Cn1cncn1)c1ccc(Oc2ccc(Cl)cc2)cc1C(F)(F)F (stereo not drawn) [Mefentrifluconazole, mefentrifluconazole]",31,38,12,26,31,38,21,24,24,12,26,12,12,26,26,26,–,–,–,–,"Observed Efficacy (Pyricularia oryzae; Conc. 0.05 ppm): 21%; Observed Efficacy (Pyricularia oryzae; Conc. 0.1 ppm): 24%; Observed Efficacy (Alternaria solani; single compound, Conc. 0.05 ppm, preventive spray): 12%"
CNC(=O)/C(=N/OC)c1ccccc1Oc1ccccc1 [Metaminostorbin],–,–,–,–,28,40,–,–,–,–,–,–,–,–,–,–,45,56,–,–,–
"OC(Cc1ccccc1Cl)(Cn1nc[nH]c1=S)C1(Cl)CC1 (stereo not drawn) [Prothioconazole, prothioconazole]",36,44,20,31,–,–,–,–,–,20,31,20,–,31,–,–,–,–,17,33,"pest or weed control at 0.01 ppm (Botrytis cinerea; Botrytis cinerea, Conc. 0.01 ppm, preventive spray on tomato, % control vs untreated, read-out: Observed Efficacy (%)): 44%; pest or weed control at 0.05 ppm (Botrytis cinerea; Botrytis cinerea, Conc. 0.05 ppm, preventive spray on tomato, % control vs untreated, read-out: Observed Efficacy (%)): 36%; pest or weed control at 0.1 ppm (Botrytis cinerea; Botrytis cinerea, Conc. 0.1 ppm, preventive spray on tomato, % control vs untreated, read-out: Observed Efficacy (%)): 44%; pest or weed control at 0.05 ppm (Alternaria solani; [18]): 20%; pest or weed control at 0.1 ppm (Alternaria solani; [19]): 31%; pest or weed control at 0.05 ppm (Alternaria solani; [20]): 20%; pest or weed control at 0.1 ppm (Alternaria solani; [21]): 31%"
"COC(=O)N(OC)c1ccccc1COc1ccn(-c2ccc(Cl)cc2)n1 [Pyraclostrobin, pyraclostrobin]",–,–,–,28,–,–,–,–,24,–,–,–,–,–,–,–,–,–,16,24,"pest or weed control at 0.05 ppm (Botrytis cinerea; Table F4, Conc. 0.05 ppm, Botrytis cinerea in tomato, preventive, read-out: Observed Efficacy (%)): 38%; pest or weed control at 0.1 ppm (Botrytis cinerea; Table F4, Conc. 0.1 ppm, Botrytis cinerea in tomato, preventive, read-out: Observed Efficacy (%)): 43%; pest or weed control at 0.05 ppm (Erysiphe cichoracearum; Golovinomyces cichoracearum, 0.05 ppm, preventive spray on cucumber, read-out: Observed Efficacy (%)): 21%; pest or weed control at 0.1 ppm (Erysiphe cichoracearum; Golovinomyces cichoracearum, 0.1 ppm, cucumber, preventive, read-out: Observed Efficacy (%)): 24%; pest or weed control at 0.05 ppm (Alternaria solani; [18]): 21%; pest or weed control at 0.1 ppm (Alternaria solani; [19]): 28%; pest or weed control at 0.05 ppm (Alternaria solani; [20]): 21%; pest or weed control at 0.1 ppm (Alternaria solani; [21]): 28%"
mancozeb,19,24,14,16,19,24,24,29,29,14,16,14,14,16,16,16,12,15,–,–,"Observed Efficacy (%) (Erysiphe cichoracearum; 0.05 ppm, cucumber, preventive): 24%; Observed Efficacy (%) (Phakopsora pachyrhizi; Conc. 0.05 ppm, soybean, preventive, Table D4): 12%; Observed Efficacy (%) (Phakopsora pachyrhizi; Conc. 0.05 ppm, soybean, preventive, Table D5): 12%; Observed Efficacy (%) (Phakopsora pachyrhizi; Conc. 0.1 ppm, soybean, preventive, Table D4): 15%; Observed Efficacy (%) (Phakopsora pachyrhizi; Conc. 0.1 ppm, soybean, preventive, Table D5): 15%"
